In BindingDB's records for doi:10.1016/j.bmc.2009.07.051 (La Rochelle University, 2009):

How the values were obtained:
[1] = target: Cyclin-dependent kinase 5 activator 1 (Homo sapiens, UniProt Q15078+Q00535); assay: Inhibition of GST-fused CDK5/p25 expressed in Escherichia coli assessed as [gamma-33P]ATP incorporation after 10 mins by scintillation counting
[2] = target: Dual specificity tyrosine-phosphorylation-regulated kinase 1A (Rattus norvegicus, UniProt Q63470); assay: Inhibition of GST-fused rat recombinant DYRK1A expressed in Escherichia coli assessed as [gamma-33P]ATP incorporation after 10 mins by scintillation counting

Chain of Cyclin-dependent kinase 5 activator 1 (Q15078 whole entry, the tested form may be a part): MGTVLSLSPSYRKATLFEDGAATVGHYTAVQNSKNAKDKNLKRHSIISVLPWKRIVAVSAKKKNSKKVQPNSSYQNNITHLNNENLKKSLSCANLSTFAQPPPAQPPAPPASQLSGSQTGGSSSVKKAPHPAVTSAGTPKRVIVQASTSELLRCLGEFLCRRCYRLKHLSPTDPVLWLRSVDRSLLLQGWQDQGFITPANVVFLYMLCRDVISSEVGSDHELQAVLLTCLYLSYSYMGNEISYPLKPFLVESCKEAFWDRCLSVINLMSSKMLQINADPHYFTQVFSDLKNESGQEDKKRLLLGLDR
Chain of Cyclin-dependent kinase 5 activator 1 (Q00535 whole entry, the tested form may be a part): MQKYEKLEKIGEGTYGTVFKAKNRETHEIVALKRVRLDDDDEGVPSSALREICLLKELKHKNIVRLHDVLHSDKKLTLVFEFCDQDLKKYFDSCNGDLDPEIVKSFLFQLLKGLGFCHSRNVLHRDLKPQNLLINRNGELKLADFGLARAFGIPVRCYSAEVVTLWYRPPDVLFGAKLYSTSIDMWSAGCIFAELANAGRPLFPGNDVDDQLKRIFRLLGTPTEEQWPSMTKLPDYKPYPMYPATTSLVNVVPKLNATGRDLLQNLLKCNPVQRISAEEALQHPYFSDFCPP

IC50 [1] [µM] | IC50 [2] [µM] | Structure (SMILES)
> 10 | – | O=C1C(C2C(=O)Nc3cc([N+](=O)[O-])ccc32)=Nc2ccc(Br)cc21 (stereo unspecified)
> 10 | – | O=C1C(C2C(=O)Nc3cc([N+](=O)[O-])ccc32)=Nc2ccccc21 (stereo unspecified) [(2''Z)-6-Nitroindirubin]
> 10 | > 10 | O=C1C(C2C(=O)Nc3c(Br)cc([N+](=O)[O-])cc32)=Nc2ccc(Br)cc21 (stereo unspecified) [(2'Z)-5'-7-Dibromo-5-nitroindirubin]
> 10 | > 10 | O=C1N=c2c(Br)cc([N+](=O)[O-])cc2=C1c1[nH]c2ccccc2c1O [(2'Z)-7-Bromo-5-nitroindirubin]
– | > 10 | Nc1ccc2c(c1)C(c1[nH]c3ccc(Br)cc3c1N=O)C(=O)N2 (stereo unspecified) [(Z)-5'-Amino-5-bromo-1H,1'H-[2,3']biindolylidene-3,2'-dione 3-oxime]
– | > 10 | O=C1N=c2ccc([N+](=O)[O-])cc2=C1c1[nH]c2ccccc2c1O [(Z)-5'-Nitro-1H,1'H-[2,3']biindolylidene-3,2'-dione]
> 10 | > 10 | O=Nc1c(C2C(=O)Nc3c(Br)cc([N+](=O)[O-])cc32)[nH]c2ccc(Br)cc12 (stereo unspecified) [(Z)-5,7'-Dibromo-5'-nitro-1H,1'H-[2,3']biindolylidene-3,2'-dione 3-oxime]
– | > 10 | O=Nc1c(C2C(=O)Nc3ccc([N+](=O)[O-])cc32)[nH]c2ccc(Br)cc12 (stereo unspecified) [(Z)-5-Bromo-5'-nitro-1H,1'H-[2,3']biindolylidene-3,2'-dione 3-oxime]
> 10 | > 10 | O=C1C(C2C(=O)Nc3ccc([N+](=O)[O-])cc32)=Nc2ccc(Br)cc21 (stereo unspecified) [(Z)-5-Bromo-5'-nitro-1H,1'H-[2,3']biindolylidene-3,2'-dione]
> 10 | > 10 | O=Nc1c(C2C(=O)Nc3c(Br)cc([N+](=O)[O-])cc32)[nH]c2ccccc12 (stereo unspecified) [(Z)-7'-Bromo-5'-nitro-1H,1'H-[2,3']biindolylidene-3,2'-dione 3-oxime]
– | > 10 | CC(=O)Nc1ccc2c(c1)C(c1[nH]c3ccc(Br)cc3c1N=O)C(=O)N2 (stereo unspecified) [N-{(Z)-5-Bromo-3-[(E)-hydroxyimino]-2'-oxo-1,3,1',2'-tetrahydro-[2,3']biindolyliden-5'-yl}-acetamide]
